Laboratory results as given in ChEMBL document CHEMBL1201862, “PubChem BioAssay data set” (2004).
Active and inactive are the calls of the source.

What was measured:
Bcl-2-like protein 10 = target: T1, Bcl-2-like protein 10 (Homo sapiens, UniProt Q9HD36); assay: Biochemical TR3 FP assay of Bcl-B inhibitor potency, EC50 (AID 1243); type: functional
T1 sequence (Q9HD36 whole entry): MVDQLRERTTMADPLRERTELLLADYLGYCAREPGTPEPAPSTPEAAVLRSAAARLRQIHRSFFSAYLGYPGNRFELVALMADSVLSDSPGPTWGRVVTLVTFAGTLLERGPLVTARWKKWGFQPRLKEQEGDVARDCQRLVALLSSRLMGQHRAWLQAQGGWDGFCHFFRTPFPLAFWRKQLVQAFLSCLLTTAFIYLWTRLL

[1] = target: T2, Mannose-6-phosphate isomerase (Homo sapiens, UniProt P34949); assay: inhibitors of human PMI, primary screen, biochemical, fluorescence intensity, coupled assay (AID 1209)
T2 sequence (P34949 whole entry): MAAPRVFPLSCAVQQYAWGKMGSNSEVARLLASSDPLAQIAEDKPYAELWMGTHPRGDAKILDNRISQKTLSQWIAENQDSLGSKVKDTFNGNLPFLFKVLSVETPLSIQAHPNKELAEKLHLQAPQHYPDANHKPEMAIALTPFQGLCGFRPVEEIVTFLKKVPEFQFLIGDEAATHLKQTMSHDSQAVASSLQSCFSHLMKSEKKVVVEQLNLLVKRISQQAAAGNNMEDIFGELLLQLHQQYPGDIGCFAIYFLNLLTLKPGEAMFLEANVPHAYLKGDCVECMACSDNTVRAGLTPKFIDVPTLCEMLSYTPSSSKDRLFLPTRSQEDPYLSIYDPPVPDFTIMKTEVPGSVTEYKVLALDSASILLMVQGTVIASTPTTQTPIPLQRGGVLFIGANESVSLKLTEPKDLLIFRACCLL

[2] = target: T2, Mannose-6-phosphate isomerase; assay: PMI enzyme inhibitors, confirmation, biochemical, fluorescence intensity (AID 1535)
Phosphomannomutase 2 = Phosphomannomutase 2 (Homo sapiens, UniProt O15305); assay: Counter screen SAR assay for PMM2 inhibitors via a fluorescence intensity assay. [Related pubchem assays (depositor defined):AID1545, AID1574]
Phosphomannomutase 2, sequence (O15305 whole entry): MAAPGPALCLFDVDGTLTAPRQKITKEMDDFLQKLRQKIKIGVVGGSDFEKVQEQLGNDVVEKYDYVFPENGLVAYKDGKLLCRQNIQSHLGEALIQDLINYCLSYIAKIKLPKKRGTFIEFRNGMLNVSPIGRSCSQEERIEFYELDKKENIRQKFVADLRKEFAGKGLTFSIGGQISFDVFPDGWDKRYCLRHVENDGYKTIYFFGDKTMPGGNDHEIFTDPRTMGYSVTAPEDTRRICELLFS

[3] = target: T3, Mitochondrial peptide methionine sulfoxide reductase (Bos taurus, UniProt P54149); assay: Absorbance-based biochemical high throughput dose response assay for activators of Methionine sulfoxide reductase A (MsrA).; type: functional
T3 sequence (P54149 whole entry): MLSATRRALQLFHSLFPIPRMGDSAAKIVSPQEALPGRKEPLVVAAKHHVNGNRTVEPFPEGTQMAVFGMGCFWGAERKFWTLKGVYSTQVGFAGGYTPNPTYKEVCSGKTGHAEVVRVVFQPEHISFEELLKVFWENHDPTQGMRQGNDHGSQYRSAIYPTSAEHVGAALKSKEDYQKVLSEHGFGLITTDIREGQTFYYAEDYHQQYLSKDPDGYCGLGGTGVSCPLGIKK

Cytochrome P450 2C9 = Cytochrome P450 2C9 (Homo sapiens, UniProt P11712); details: Potency
Cytochrome P450 2C9, sequence (P11712 whole entry): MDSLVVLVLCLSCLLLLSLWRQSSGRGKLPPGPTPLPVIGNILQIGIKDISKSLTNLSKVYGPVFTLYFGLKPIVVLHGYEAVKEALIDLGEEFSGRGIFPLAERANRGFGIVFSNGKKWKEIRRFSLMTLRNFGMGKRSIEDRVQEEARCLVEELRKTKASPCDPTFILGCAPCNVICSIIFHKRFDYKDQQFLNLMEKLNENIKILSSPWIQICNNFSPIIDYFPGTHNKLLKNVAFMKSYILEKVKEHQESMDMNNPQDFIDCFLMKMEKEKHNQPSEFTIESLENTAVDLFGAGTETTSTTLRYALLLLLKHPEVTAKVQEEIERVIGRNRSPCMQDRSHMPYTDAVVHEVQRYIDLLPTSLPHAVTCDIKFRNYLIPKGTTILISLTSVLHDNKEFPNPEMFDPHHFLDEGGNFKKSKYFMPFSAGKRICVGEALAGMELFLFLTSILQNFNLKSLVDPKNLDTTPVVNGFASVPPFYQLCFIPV

[4] = target: T4, Alkaline phosphatase, tissue-nonspecific isozyme (Homo sapiens, UniProt P05186)
T4 sequence (P05186 whole entry): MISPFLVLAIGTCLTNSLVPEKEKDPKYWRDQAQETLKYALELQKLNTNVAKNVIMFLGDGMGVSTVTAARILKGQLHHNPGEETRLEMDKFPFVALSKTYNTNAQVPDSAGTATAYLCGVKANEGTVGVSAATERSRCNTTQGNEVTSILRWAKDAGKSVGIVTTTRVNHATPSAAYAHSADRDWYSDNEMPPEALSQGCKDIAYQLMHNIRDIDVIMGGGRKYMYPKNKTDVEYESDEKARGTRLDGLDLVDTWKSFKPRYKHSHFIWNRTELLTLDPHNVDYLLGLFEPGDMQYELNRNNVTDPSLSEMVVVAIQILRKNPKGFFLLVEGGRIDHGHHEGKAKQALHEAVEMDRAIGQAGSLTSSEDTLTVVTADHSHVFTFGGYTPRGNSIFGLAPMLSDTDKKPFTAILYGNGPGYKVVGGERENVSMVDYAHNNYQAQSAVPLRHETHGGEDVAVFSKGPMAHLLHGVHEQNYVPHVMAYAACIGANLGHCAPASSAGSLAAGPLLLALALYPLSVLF

[5] = cytotoxicity in HPDE-C7 cells, cell-based, fluorescence, HTS (AID 430); type: functional; details: Homo sapiens
[6] = cytotoxicity in KRAS-transformed pancreatic duct cells, primary screen, cell-based, fluorescence, HTS (AID 431); type: functional; details: Homo sapiens;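 note: cell line used: HPDE-C7K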
[7] = Luminescence Cell-Based Dose Retest to Confirm Inhibitors of Cancer Stem Cells. [Related pubchem assays (depositor defined):AID2717, AID2721]; type: functional; details: Homo sapiens
[8] = target: T5, Methionyl-tRNA synthetase, putative (Trypanosoma brucei brucei, UniProt Q38C91); type: functional, Trypanosoma brucei brucei strain 927/4 GUTat10.1
T5 sequence (Q38C91 whole entry): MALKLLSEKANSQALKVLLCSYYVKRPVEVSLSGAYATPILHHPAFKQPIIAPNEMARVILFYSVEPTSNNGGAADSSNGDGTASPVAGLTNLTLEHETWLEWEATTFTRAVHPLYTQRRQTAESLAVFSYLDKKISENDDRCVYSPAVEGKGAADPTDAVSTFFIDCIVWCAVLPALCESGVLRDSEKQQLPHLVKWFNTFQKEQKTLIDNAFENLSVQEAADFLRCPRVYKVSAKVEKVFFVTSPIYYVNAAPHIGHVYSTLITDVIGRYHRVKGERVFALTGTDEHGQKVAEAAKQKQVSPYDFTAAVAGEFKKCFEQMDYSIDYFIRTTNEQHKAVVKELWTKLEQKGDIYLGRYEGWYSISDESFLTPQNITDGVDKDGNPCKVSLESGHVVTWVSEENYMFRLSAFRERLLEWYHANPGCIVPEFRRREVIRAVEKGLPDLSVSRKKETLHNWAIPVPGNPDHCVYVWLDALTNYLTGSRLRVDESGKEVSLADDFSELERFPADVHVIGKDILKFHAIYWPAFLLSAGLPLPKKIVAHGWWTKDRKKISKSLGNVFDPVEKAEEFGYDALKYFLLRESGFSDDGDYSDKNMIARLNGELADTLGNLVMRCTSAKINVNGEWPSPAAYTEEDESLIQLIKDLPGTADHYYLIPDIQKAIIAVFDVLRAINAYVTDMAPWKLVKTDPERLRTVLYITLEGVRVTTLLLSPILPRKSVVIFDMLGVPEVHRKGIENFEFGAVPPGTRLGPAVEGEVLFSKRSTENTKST

[9] = Counterscreen for inhibitors of Trypanosoma brucei methionyl tRNA synthetase (MetRS): Luminescence-based cell-based high throughput dose response assay to identify compounds that are cytotoxic to Jurkat human T lymphocyte cells.; type: functional; details: jurkat
[10] = target: T5, Methionyl-tRNA synthetase, putative; type: functional, Trypanosoma brucei brucei strain 927/4 GUTat10.1; remark: listed apart in the source
[11] = target: G2/mitotic-specific cyclin-B1 (Homo sapiens, UniProt P14635); assay: Counterscreen assay for inhibitors of Wee1 degradation: dose response cell-based assay to identify inhibitors of cyclin B degradation. [Related pubchem assays: 1410, 1321 ]; type: functional
G2/mitotic-specific cyclin-B1, sequence (P14635 whole entry): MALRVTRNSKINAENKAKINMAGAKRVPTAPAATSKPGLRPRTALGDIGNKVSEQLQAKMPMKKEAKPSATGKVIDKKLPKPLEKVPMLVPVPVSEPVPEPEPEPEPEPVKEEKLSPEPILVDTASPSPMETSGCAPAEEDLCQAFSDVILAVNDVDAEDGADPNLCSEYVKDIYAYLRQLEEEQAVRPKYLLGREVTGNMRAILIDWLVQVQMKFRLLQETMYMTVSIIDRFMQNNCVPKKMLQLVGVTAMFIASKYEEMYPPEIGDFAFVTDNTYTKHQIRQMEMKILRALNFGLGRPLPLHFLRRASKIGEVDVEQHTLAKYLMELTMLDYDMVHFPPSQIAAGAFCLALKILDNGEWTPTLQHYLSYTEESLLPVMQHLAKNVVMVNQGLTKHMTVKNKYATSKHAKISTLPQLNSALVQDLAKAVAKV

[12] = Luminescence Cell-Based Dose Confirmation HTS to Identify Activators of 5'UTR Stem-Loop Driven Alpha-Synuclein mRNA Translation in H4 Neuroglioblastoma Cells. [Related pubchem assays: 1829 (Project Summary), 1814 (Primary HTS)]; type: functional
[13] = Luminescence Cell-Based Dose Response HTS to Identify Activators of Luciferase Translation or Activity in H4 […] Cells. [Related pubchem assays: 1829 (Project Summary), 1814 (Primary HTS)]; type: functional
Wee1-like protein kinase = Wee1-like protein kinase (Homo sapiens, UniProt P30291); assay: Dose Response Cell-based Assay for Inhibitors of Wee1 Degradation. [Related pubchem assays: 1410, 1321 ]; type: functional
Wee1-like protein kinase, sequence (P30291 whole entry): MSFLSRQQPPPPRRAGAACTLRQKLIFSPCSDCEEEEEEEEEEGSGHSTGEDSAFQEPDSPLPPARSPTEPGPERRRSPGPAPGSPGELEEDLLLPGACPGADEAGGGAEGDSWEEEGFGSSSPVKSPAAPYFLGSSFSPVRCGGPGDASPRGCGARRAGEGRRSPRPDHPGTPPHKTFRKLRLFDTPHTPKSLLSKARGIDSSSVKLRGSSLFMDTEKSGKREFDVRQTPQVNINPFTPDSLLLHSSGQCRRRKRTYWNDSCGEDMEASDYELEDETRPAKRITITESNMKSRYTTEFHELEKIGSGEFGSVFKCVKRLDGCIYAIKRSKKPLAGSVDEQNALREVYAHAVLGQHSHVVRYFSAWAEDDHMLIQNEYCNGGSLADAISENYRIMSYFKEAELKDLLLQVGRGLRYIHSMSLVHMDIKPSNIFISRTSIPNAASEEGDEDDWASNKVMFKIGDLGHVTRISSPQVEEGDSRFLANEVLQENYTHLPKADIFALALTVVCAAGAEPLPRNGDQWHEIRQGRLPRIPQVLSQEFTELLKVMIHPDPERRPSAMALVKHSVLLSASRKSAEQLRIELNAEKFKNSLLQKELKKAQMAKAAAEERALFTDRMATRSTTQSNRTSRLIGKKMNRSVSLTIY

H4 = assay: Luminescence Cell-Based Dose Response HTS to Identify Activators of 5'UTR Stem-Loop Driven Prion Protein mRNA Translation in H4 Neuroglioblastoma Cells. [Related pubchem assays: 1829 (Project Summary), 1814 (Primary HTS)]; type: functional; details: Homo sapiens
[14] = target: T3, Mitochondrial peptide methionine sulfoxide reductase; type: functional
Cytochrome P450 2D6 = Cytochrome P450 2D6 (Homo sapiens, UniProt P10635); assay: qHTS Assay for Inhibitors and Substrates of Cytochrome P450 2D6. [Related pubchem assays: 410 ]; type: ADME; details: read-out: Potency
Cytochrome P450 2D6, sequence (P10635 whole entry): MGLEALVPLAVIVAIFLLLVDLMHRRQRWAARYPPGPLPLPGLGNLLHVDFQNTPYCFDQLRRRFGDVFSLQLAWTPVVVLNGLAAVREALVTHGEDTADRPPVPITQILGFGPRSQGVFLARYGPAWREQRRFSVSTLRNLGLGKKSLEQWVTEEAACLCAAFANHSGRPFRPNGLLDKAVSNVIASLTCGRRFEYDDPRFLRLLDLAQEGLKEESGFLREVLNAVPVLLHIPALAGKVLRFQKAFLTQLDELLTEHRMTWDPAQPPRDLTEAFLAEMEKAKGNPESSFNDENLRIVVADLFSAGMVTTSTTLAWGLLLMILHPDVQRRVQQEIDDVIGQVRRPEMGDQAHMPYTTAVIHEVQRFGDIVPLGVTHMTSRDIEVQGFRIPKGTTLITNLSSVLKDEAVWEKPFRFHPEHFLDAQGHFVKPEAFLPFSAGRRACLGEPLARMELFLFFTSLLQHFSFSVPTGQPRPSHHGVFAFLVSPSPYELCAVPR

NS3 = NS3 (Hepatitis C virus, UniProt A3EZJ3); assay: PubChem AID 2173; parameters: species or system Hepacivirus hominis
NS3, sequence (A3EZJ3 whole entry): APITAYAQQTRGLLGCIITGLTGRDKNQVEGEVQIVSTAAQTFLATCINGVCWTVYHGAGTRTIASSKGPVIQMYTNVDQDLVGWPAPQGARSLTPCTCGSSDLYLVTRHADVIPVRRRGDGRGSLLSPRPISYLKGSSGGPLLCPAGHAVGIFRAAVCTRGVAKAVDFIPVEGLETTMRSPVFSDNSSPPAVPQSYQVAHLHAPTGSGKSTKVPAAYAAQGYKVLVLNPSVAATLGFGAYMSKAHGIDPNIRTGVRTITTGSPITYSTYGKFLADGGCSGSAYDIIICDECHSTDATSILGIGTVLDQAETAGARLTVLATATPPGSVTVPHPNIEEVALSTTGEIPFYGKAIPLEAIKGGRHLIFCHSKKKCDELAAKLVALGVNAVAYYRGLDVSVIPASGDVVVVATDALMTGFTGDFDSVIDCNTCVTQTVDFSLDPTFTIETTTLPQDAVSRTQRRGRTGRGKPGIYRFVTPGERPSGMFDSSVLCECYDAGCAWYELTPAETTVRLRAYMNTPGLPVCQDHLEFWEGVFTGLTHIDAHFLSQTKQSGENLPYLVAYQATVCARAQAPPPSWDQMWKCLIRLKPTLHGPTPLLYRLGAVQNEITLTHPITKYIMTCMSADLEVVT

[15] = A High Throughput Confirmatory Assay used to Identify Novel Compounds that Inhibit Mycobacterium Tuberculosis in the absence of Glycerol.; type: functional
Melanocortin receptor 4 = Melanocortin receptor 4 (Homo sapiens, UniProt P32245); assay: MC4R antagonist potency on cAMP, dose response, cell-based, TR-FRET, biased antagonists (AID 602298); type: functional;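 note: antagonist potency against agonist-stimulated cAMP production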
Melanocortin receptor 4, sequence (P32245 whole entry): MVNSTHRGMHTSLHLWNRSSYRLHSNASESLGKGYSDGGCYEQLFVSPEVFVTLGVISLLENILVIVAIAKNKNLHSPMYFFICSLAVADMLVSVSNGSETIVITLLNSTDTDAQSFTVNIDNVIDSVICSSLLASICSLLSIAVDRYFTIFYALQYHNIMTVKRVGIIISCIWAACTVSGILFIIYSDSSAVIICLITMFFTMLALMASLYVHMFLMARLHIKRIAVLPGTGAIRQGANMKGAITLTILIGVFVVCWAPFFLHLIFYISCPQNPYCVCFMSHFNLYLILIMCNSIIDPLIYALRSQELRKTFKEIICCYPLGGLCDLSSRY

[16] = nonselective inhibitors of cellular cAMP signaling, dose response, counter-screen for MC4R biased antagonist project, cell-based, TR-FRET cAMP detection (AID 602305); type: functional;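 note: U2OS cells stimulated with forskolin near its EC80 as the cAMP inducer; potency is for inhibition of forskolin-stimulated cAMP signaling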
[17] = Luminescence Cell-Based/Microorganism Confirmation at Dose of Inhibitors of Trypanosoma cruzi Infection. [Related pubchem assays: 1885, 1968 ]; type: functional
[18] = inhibitors of intracellular T. cruzi replication, confirmation, NIH3T3 host cells, beta-gal luminescence (AID 2044); type: functional, cell-based;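 note: intracellular parasites grown in NIH/3T3 mouse fibroblasts as host cells; luminescent beta-galactosidase reporter signal from transgenic T. cruzi replicating inside host cells; inhibitors lower the luminescence signal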
[19] = Luminescence Cell-Based Secondary HTS screen to identify cytotoxic compounds of NIH3T3 cells. [Related pubchem assays: 1885, 1968 ]; type: functional
[20] = cytotoxicity toward NIH3T3 fibroblasts, dose response, counter-screen, cell-based, ATP luminescence, mouse fibroblasts (AID 2010); type: functional;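 note: cells exposed to compound for about 90 hours before reading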
[21] = target: T6, Short transient receptor potential channel 4 (Mus musculus, UniProt Q9QUQ5); assay: mouse TRPC4 channel inhibitors, dose response, cell-based, HEK293 TRPC4/mu-opioid, Fluo-4 calcium (AID 434942); type: functional;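 note: potency of inhibitors blocking the TRPC4 calcium response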
T6 sequence (Q9QUQ5 whole entry): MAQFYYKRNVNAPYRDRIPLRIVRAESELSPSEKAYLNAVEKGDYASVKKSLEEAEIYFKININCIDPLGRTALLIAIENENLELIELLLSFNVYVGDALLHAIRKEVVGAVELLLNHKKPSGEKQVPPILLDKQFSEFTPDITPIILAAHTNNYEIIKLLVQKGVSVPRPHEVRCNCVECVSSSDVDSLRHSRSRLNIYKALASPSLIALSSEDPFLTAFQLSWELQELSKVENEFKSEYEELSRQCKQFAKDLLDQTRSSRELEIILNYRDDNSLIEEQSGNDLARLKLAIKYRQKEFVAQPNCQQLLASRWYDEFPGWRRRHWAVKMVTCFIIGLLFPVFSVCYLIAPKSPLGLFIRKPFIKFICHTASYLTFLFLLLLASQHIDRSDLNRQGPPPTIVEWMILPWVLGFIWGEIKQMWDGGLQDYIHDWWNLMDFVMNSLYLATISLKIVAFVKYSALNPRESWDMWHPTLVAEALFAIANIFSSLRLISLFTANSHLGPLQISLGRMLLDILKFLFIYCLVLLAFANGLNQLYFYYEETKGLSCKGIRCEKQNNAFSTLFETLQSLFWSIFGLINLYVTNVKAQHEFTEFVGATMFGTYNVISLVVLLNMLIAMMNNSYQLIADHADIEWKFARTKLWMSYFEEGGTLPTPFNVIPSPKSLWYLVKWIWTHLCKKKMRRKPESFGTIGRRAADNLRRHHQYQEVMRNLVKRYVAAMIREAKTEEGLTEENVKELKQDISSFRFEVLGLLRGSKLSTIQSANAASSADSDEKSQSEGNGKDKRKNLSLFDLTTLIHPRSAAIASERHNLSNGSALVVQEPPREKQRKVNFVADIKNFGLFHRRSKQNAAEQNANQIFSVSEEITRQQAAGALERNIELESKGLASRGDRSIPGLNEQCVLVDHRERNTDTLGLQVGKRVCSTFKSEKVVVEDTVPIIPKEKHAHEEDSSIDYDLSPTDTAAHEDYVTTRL

[22] = inhibitors of Bluetongue virus cytopathic effect, confirmation, arbovirus, BSR cells (AID 1250); type: functional;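 note: protection from viral cytopathic effect measured as cell viability by ATP luminescence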

## O=C(O)C1Nc2c(C(=O)N3CCCC3)cccc2C2C=CCC12 (stereo unspecified)
Bcl-2-like protein 10
  EC50: 4.95 µM (active)

## Sc1n[nH]c(-c2cccc(Br)c2)n1
[1]
  IC50: 14.5 µM (active)
[2]
  IC50: 6.15 µM (active)
Phosphomannomutase 2
  IC50: > 100 µM (inactive)
[3]
  EC50: > 104 µM (inactive)

## CC(C)C[C@@H](CC(=O)N[C@@H](CCC(=O)O)CC(=O)O)NC(=O)[C@@H]1CCCC[C@H]1NC(=O)C[C@H](CCCN)NC(=O)C[C@H](CO)NC(=O)[C@@H]1CNCC[C@H]1N
Cytochrome P450 2C9
  AC50: 31.6 µM (inconclusive)

## Clc1ccc(COC(Cn2ccnc2)c2ccc(Cl)cc2Cl)c(Cl)c1 (stereo unspecified) [MICONAZOLE NITRATE]
[4]
  EC50: 70.6 µM (not active)
[5]
  EC50: 8.19 µM (active)
[6]
  EC50: 7.45 µM (active)
[7]
  AC50: 6.36 µM (active)
[8]
  IC50: 11 µM (inactive)
[9]
  IC50: 28.1 µM (inactive)
[10]
  IC50: 13.2 µM (inactive)

## COc1cccc(C2=CC(c3cccc(OC)c3OC)n3nnnc3N2)c1 (stereo unspecified)
[11]
  EC50: > 49.7 µM (not active)
[12]
  EC50: 26.1 µM (active)
[13]
  EC50: 17 µM (active)
Wee1-like protein kinase
  EC50: > 49.7 µM (not active)
H4
  EC50: 13.1 µM (active)
[14]
  IC50: 155 µM (inactive)

## COc1cc(C(=O)O[C@@H]2CC(C)=CC[C@@]3(C)CC[C@](O)(C(C)C)[C@H]23)ccc1O
Cytochrome P450 2D6
  AC50: 31.6 µM (inconclusive)

## COc1ccc(OC)c(C2CC(=O)N3CN(c4ccccc4F)CSC3=C2C#N)c1 (stereo unspecified)
NS3
  IC50: 6.77 µM (active)

## CN1CCN(C(=O)/C=C/c2cn(-c3ccccc3)nc2-c2ccc3c(c2)OCCO3)CC1
[15]
  IC50: > 100 µM (active)
Melanocortin receptor 4
  IC50: > 64.6 µM (inactive)
[16]
  IC50: > 64.6 µM (inactive)

## CC(C)Oc1cccc(C(=O)C2CCCN(Cc3cnn(C(C)C)c3)C2)c1 (stereo unspecified)
[17]
  EC50: 0.068 µM (active)
[18]
  EC50: < 0.1 µM (active)
[19]
  EC50: > 195 µM (not active)
[20]
  EC50: > 60 µM (not active)
[21]
  EC50: 2.11 µM (active)
cells
  EC50: 0.039 µM (active)

## CC(C)CCOc1ccc(/C=C2\CCn3c2nc2cc(C(=O)O)ccc2c3=O)cc1
[22]
  IC50: 32.2 µM (active)
